# In patent US4620014A, “2-furylbutyrolactones and methods for using same” (priority 1983, dated 1986):
# Like-named read-outs stand apart in the source and are kept apart here.
# System: spleen lymphocytes of BSA-immunized C57BL/6 mice
# Description: The effect of the compounds of this invention on the immune response to specific antigens involves immunization of mice with specific anitgens such as bovine serum albumin (BSA) or keyhole limpet hemocyanin (KLH). Following immunization, it is possible to assess the cell-mediated or humoral (antibody) immune response to these antigens by various methods:
# (1) Lymphocyte stimulation assays can be performed using varying concentrations of the specific antigens as mitogens in the lymphocyte stimulation microculture system described above. The only difference is that the incubation period is extended to five days instead of three as for the polyclonal mitogens.
# Mice of the C57BL/6 strain are given i.p. injections of either 50, 100, 200 or 400 mg/kg of Cpd. 1 or buffer for twelve days (days 1-12). An antigen, bovine serum albumin (BSA), is administered intraperitoneally with Freund's Complete Adjuvant (FCA) on days 1, 7 and 14. Blood samples are taken for assay of the antibody response on days 0, 5, 13, and 19.
smiles,measurement,setting,value
Cc1ccc(C2(O)C(=O)OC3C(O)COC32O)o1.Cc1ccc(C2(O)C(=O)OC3C(O)COC32O)o1.O=C1CCC(=O)O1 (stereo not drawn) [Cpd. 1],Lymphocyte Stimulation Index,"50 mg/kg i.p., day 13, BSA 0 μg/well",16.5
same,Lymphocyte Stimulation Index,"50 mg/kg i.p., day 13, BSA 0.01 μg/well",19.9
same,Lymphocyte Stimulation Index,"50 mg/kg i.p., day 13, BSA 0.1 μg/well",23.1
same,Lymphocyte Stimulation Index,"50 mg/kg i.p., day 13, BSA 0.5 μg/well",22.9
same,Lymphocyte Stimulation Index,"50 mg/kg i.p., day 13, BSA 1 μg/well",18.2
same,Lymphocyte Stimulation Index,"50 mg/kg i.p., day 19, BSA 0 μg/well",.26
same,Lymphocyte Stimulation Index,"50 mg/kg i.p., day 19, BSA 0.01 μg/well",2.33
same,Lymphocyte Stimulation Index,"50 mg/kg i.p., day 19, BSA 0.1 μg/well",2.27
same,Lymphocyte Stimulation Index,"50 mg/kg i.p., day 19, BSA 0.5 μg/well",2.37
same,Lymphocyte Stimulation Index,"50 mg/kg i.p., day 19, BSA 1.0 μg/well",2.63
same,DNA synthesis compared to controls,"50 mg/kg, day 13",significant stimulation of DNA synthesis
same,DNA synthesis effect,"50 mg/kg, day 19",waned
same,Lymphocyte Stimulation Index,"100 mg/kg i.p., day 13, BSA 0 μg/well",3.22
same,Lymphocyte Stimulation Index,"100 mg/kg i.p., day 13, BSA 0.01 μg/well",9.8
same,Lymphocyte Stimulation Index,"100 mg/kg i.p., day 13, BSA 0.1 μg/well",11.9
same,Lymphocyte Stimulation Index,"100 mg/kg i.p., day 13, BSA 0.5 μg/well",12.3
same,Lymphocyte Stimulation Index,"100 mg/kg i.p., day 13, BSA 1 μg/well",10.2
same,Lymphocyte Stimulation Index,"100 mg/kg i.p., day 19, BSA 0 μg/well",4.1
same,Lymphocyte Stimulation Index,"100 mg/kg i.p., day 19, BSA 0.01 μg/well",3.79
same,Lymphocyte Stimulation Index,"100 mg/kg i.p., day 19, BSA 0.1 μg/well",2.68
same,Lymphocyte Stimulation Index,"100 mg/kg i.p., day 19, BSA 0.5 μg/well",2.03
same,Lymphocyte Stimulation Index,"100 mg/kg i.p., day 19, BSA 1.0 μg/well",.26
same,Lymphocyte Stimulation Index,"200 mg/kg i.p., day 13, BSA 0 μg/well",10.6
same,Lymphocyte Stimulation Index,"200 mg/kg i.p., day 13, BSA 0.01 μg/well",14.1
same,Lymphocyte Stimulation Index,"200 mg/kg i.p., day 13, BSA 0.1 μg/well",15.8
same,Lymphocyte Stimulation Index,"200 mg/kg i.p., day 13, BSA 0.5 μg/well",13.8
same,Lymphocyte Stimulation Index,"200 mg/kg i.p., day 13, BSA 1 μg/well",14.0
same,Lymphocyte Stimulation Index,"200 mg/kg i.p., day 19, BSA 0 μg/well",0.42
same,Lymphocyte Stimulation Index,"200 mg/kg i.p., day 19, BSA 0.01 μg/well",2.94
same,Lymphocyte Stimulation Index,"200 mg/kg i.p., day 19, BSA 0.1 μg/well",2.82
same,Lymphocyte Stimulation Index,"200 mg/kg i.p., day 19, BSA 0.5 μg/well",2.56
same,Lymphocyte Stimulation Index,"200 mg/kg i.p., day 19, BSA 1.0 μg/well",2.12
same,Lymphocyte Stimulation Index,"400 mg/kg i.p., day 13, BSA 0 μg/well",10.9
same,Lymphocyte Stimulation Index,"400 mg/kg i.p., day 13, BSA 0.01 μg/well",13.7
same,Lymphocyte Stimulation Index,"400 mg/kg i.p., day 13, BSA 0.1 μg/well",12.8
same,Lymphocyte Stimulation Index,"400 mg/kg i.p., day 13, BSA 0.5 μg/well",12.3
same,Lymphocyte Stimulation Index,"400 mg/kg i.p., day 13, BSA 1 μg/well",13.8
same,Lymphocyte Stimulation Index,"400 mg/kg i.p., day 19, BSA 0 μg/well",5.0
same,Lymphocyte Stimulation Index,"400 mg/kg i.p., day 19, BSA 0.01 μg/well",3.26
same,Lymphocyte Stimulation Index,"400 mg/kg i.p., day 19, BSA 0.1 μg/well",2.89
same,Lymphocyte Stimulation Index,"400 mg/kg i.p., day 19, BSA 0.5 μg/well",1.94
same,Lymphocyte Stimulation Index,"400 mg/kg i.p., day 19, BSA 1.0 μg/well",1.04
